Experimental data from ChEMBL document CHEMBL1201862, “PubChem BioAssay data set” (2004).
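Grown in 96-well plates, cells were treated for 48 hours with each compound at five concentrations. Insufficient inhibition: endpoint recorded as highest concentration tested. GI50 is the concentration that inhibits growth by half.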 The source made the active and inactive calls. Rule as the data show it: active = GI50 up to about 1.1 µM and inactive = higher.

What was measured:
Assay in all cases: DTP human tumour cell line panel, 48 h
A498 = system: A498
LOX IMVI = system: LOX IMVI
SF-268 = system: SF-268
OVCAR-5 = system: OVCAR-5
RPMI-8226 = system: RPMI-8226
SK-OV-3 = system: SK-OV-3
HT-29 = system: HT-29
UO-31 = system: UO-31
K562 = system: K562
SK-MEL-2 = system: SK-MEL-2
IGROV-1 = system: IGROV-1
SNB-19 = system: SNB-19
NCI-H226 = system: NCI-H226
SN12C = system: SN12C
NCI-H460 = system: NCI-H460
KM12 = system: KM12
NCI-H522 = system: NCI-H522
HOP-62 = system: HOP-62

Measured: GI50

COc1ccc(S(=O)(=O)N(C)CC(=O)O)cc1
inactive: A498 > 100 µM | LOX IMVI > 100 µM | SF-268 > 100 µM | OVCAR-5 > 100 µM | RPMI-8226 > 100 µM | SK-OV-3 > 100 µM | HT-29 > 100 µM | UO-31 > 100 µM | K562 > 100 µM | SK-MEL-2 > 100 µM | IGROV-1 > 100 µM | SNB-19 > 100 µM | NCI-H226 > 100 µM | SN12C > 100 µM | NCI-H460 > 100 µM | KM12 > 100 µM | NCI-H522 > 100 µM

O=C1Nc2ccccc2C1(O)C/C(=N/O)c1ccc2ccccc2c1 (centres undefined)
inactive: A498 > 100 µM | LOX IMVI 22.3 µM | SF-268 > 100 µM | OVCAR-5 > 100 µM | RPMI-8226 87.1 µM | SK-OV-3 49.1 µM | HT-29 > 100 µM | UO-31 75.9 µM | K562 72.6 µM | SK-MEL-2 > 100 µM | SNB-19 > 100 µM | NCI-H226 > 100 µM | SN12C > 100 µM | NCI-H460 > 100 µM | KM12 > 100 µM | NCI-H522 > 100 µM | HOP-62 > 100 µM

CN(c1ccccc1)C(c1ccccc1)C(O)c1ccccc1 (centres undefined)
inactive: A498 22 µM | LOX IMVI 17 µM | SF-268 21.4 µM | OVCAR-5 19.5 µM | RPMI-8226 20.8 µM | SK-OV-3 22.6 µM | HT-29 17.9 µM | UO-31 21.3 µM | K562 17.2 µM | SK-MEL-2 16.7 µM | IGROV-1 22.2 µM | SNB-19 16.8 µM | SN12C 17.1 µM | NCI-H460 20.1 µM | KM12 17.9 µM | NCI-H522 20 µM | HOP-62 20.4 µM

Cc1cc(NC(=O)C2C3C=CC(O3)C2C(=O)O)no1 (centres undefined)
inactive: A498 48 µM | LOX IMVI 14.3 µM | SF-268 24.3 µM | OVCAR-5 > 100 µM | RPMI-8226 16.6 µM | SK-OV-3 > 100 µM | HT-29 34.6 µM | UO-31 > 100 µM | K562 22.2 µM | SK-MEL-2 > 100 µM | IGROV-1 > 100 µM | SNB-19 > 100 µM | NCI-H226 > 100 µM | SN12C 37.6 µM | NCI-H460 31.7 µM | NCI-H522 > 100 µM | HOP-62 > 100 µM

Cc1ccc(S(=O)(=O)OC2CC=CC2)cc1
inactive: LOX IMVI > 100 µM | OVCAR-5 > 100 µM | RPMI-8226 > 100 µM | SK-OV-3 > 100 µM | HT-29 > 100 µM | UO-31 > 100 µM | K562 > 100 µM | SK-MEL-2 > 100 µM | IGROV-1 > 100 µM | SNB-19 > 100 µM | NCI-H226 > 100 µM | SN12C > 100 µM | NCI-H460 > 100 µM | KM12 > 100 µM | HOP-62 > 100 µM

CCOC(=O)C(C)(NC(=O)c1ccc(NCc2ccc3nc(NC(=O)c4ccccc4)nc(NC(=O)c4ccccc4)c3c2)cc1)C(=O)OCC
inactive: A498 9.35 µM | LOX IMVI 13.6 µM | SF-268 8.99 µM | OVCAR-5 > 100 µM | RPMI-8226 18.3 µM | SK-OV-3 12.5 µM | HT-29 13.3 µM | UO-31 18.1 µM | SK-MEL-2 14.1 µM | IGROV-1 19.9 µM | NCI-H226 10.1 µM | SN12C 11.4 µM | NCI-H460 14.5 µM | NCI-H522 13.4 µM | HOP-62 16.6 µM

CC(C)c1cc2c(O)c(c1)Cc1cc(C(C)C)cc(c1O)Cc1cc(C(C)C)cc(c1O)Cc1cc(C(C)C)cc(c1O)C2
inactive: A498 > 100 µM | LOX IMVI > 100 µM | SF-268 > 100 µM | OVCAR-5 > 100 µM | RPMI-8226 > 100 µM | SK-OV-3 > 100 µM | HT-29 > 100 µM | UO-31 > 100 µM | K562 > 100 µM | SK-MEL-2 > 100 µM | IGROV-1 > 100 µM | SNB-19 > 100 µM | NCI-H226 > 100 µM | NCI-H460 > 100 µM | KM12 > 100 µM | NCI-H522 > 100 µM | HOP-62 > 100 µM

O=C1NC(=O)C(CCC(=O)c2ccc3ccccc3c2)C(=O)N1
inactive: A498 > 100 µM | LOX IMVI > 100 µM | SF-268 > 100 µM | OVCAR-5 > 100 µM | SK-OV-3 > 100 µM | HT-29 > 100 µM | UO-31 > 100 µM | K562 > 100 µM | SK-MEL-2 > 100 µM | IGROV-1 > 100 µM | SNB-19 > 100 µM | NCI-H226 > 100 µM | SN12C > 100 µM | NCI-H460 > 100 µM | KM12 > 100 µM | NCI-H522 20.1 µM | HOP-62 > 100 µM

C=CCC1(C(=O)OC(C)(C)C)C(OC)=C(C(=O)OC(C)(C)C)C2C1C(C(=O)OC(C)(C)C)=C(OC)C2(CC=C)C(=O)OC(C)(C)C (centres undefined)
inactive: SF-268 > 100 µM | OVCAR-5 > 100 µM | RPMI-8226 > 100 µM | SK-OV-3 > 100 µM | UO-31 > 100 µM | K562 > 100 µM | SK-MEL-2 > 100 µM | IGROV-1 > 100 µM | SNB-19 > 100 µM | NCI-H226 > 100 µM | SN12C > 100 µM | KM12 > 100 µM | NCI-H522 > 100 µM

CC(=O)NNc1nc(C)c(C(=O)NNC(=O)C(=O)Nc2c([N+](=O)[O-])ccc(C)c2C)s1
inactive: A498 31.6 µM | LOX IMVI 78.3 µM | SF-268 90.6 µM | OVCAR-5 > 100 µM | RPMI-8226 > 100 µM | HT-29 > 100 µM | UO-31 > 100 µM | K562 41.5 µM | SK-MEL-2 > 100 µM | IGROV-1 > 100 µM | SNB-19 > 100 µM | NCI-H226 > 100 µM | SN12C > 100 µM | NCI-H460 > 100 µM | KM12 > 100 µM | NCI-H522 50.9 µM | HOP-62 > 100 µM

COc1cc(C2C(C(=O)O)=C(C)Oc3cc4c(cc32)OCO4)cc(OC)c1OC (centres undefined)
inactive: LOX IMVI 41.3 µM | RPMI-8226 > 10 µM | SK-OV-3 39.9 µM | HT-29 31.6 µM | UO-31 15.3 µM | K562 19.9 µM | IGROV-1 58.2 µM | SNB-19 40.6 µM | SN12C 38.2 µM | NCI-H460 37.7 µM

CC(O)CN1C(=O)NC(Cc2ccccc2)C1=O (centres undefined)
inactive: LOX IMVI > 100 µM | SF-268 > 100 µM | OVCAR-5 > 100 µM | HT-29 > 100 µM | UO-31 > 100 µM | SK-MEL-2 > 100 µM | SNB-19 > 100 µM | NCI-H226 > 100 µM | SN12C > 100 µM | NCI-H460 > 100 µM | KM12 > 100 µM | NCI-H522 > 100 µM | HOP-62 29.5 µM

Cc1cc2c(c(C(N)=O)c1C)-c1ccccc1C2=O
inactive: A498 51.4 µM | LOX IMVI > 100 µM | SF-268 > 100 µM | OVCAR-5 > 100 µM | RPMI-8226 > 100 µM | SK-OV-3 > 100 µM | HT-29 > 100 µM | UO-31 > 100 µM | K562 > 100 µM | SK-MEL-2 > 100 µM | IGROV-1 > 100 µM | SNB-19 > 100 µM | SN12C > 100 µM | NCI-H460 > 100 µM | KM12 2.42 µM | NCI-H522 > 100 µM | HOP-62 > 100 µM

COc1ccccc1N1C(=O)/C(=C/c2ccc(N(CCC#N)CCC#N)cc2C)N=C1c1cc([N+](=O)[O-])ccc1Cl
inactive: A498 > 100 µM | SF-268 > 100 µM | OVCAR-5 > 100 µM | RPMI-8226 > 100 µM | SK-OV-3 > 100 µM | HT-29 > 100 µM | UO-31 > 100 µM | K562 > 100 µM | SK-MEL-2 > 100 µM | IGROV-1 > 100 µM | SNB-19 > 100 µM | NCI-H226 > 100 µM | SN12C > 100 µM | NCI-H460 > 100 µM | KM12 > 100 µM | NCI-H522 > 100 µM | HOP-62 > 100 µM

CC(=O)Nc1cc(N(CCOS(C)(=O)=O)CCOS(C)(=O)=O)ccc1N=O
inactive: SF-268 > 100 µM | OVCAR-5 > 100 µM | RPMI-8226 > 100 µM | HT-29 > 100 µM | UO-31 > 100 µM | K562 > 100 µM | SK-MEL-2 > 100 µM | IGROV-1 > 100 µM | SNB-19 > 100 µM | NCI-H226 > 100 µM | NCI-H460 > 100 µM | KM12 > 100 µM | NCI-H522 > 100 µM | HOP-62 > 100 µM

OCCCOC(c1ccccc1)(c1ccccc1)c1ccccc1
inactive: LOX IMVI 35.6 µM | SF-268 > 100 µM | OVCAR-5 > 100 µM | RPMI-8226 > 100 µM | SK-OV-3 > 100 µM | HT-29 24.3 µM | UO-31 47 µM | K562 > 100 µM | IGROV-1 > 100 µM | SN12C > 100 µM | NCI-H460 > 100 µM | KM12 > 100 µM | NCI-H522 > 100 µM | HOP-62 39.7 µM

COc1cccc(SSc2cccc(OC)c2C(=O)O)c1C(=O)O
inactive: A498 > 100 µM | LOX IMVI > 100 µM | SF-268 > 100 µM | OVCAR-5 > 100 µM | RPMI-8226 > 100 µM | SK-OV-3 > 100 µM | HT-29 > 100 µM | UO-31 > 100 µM | K562 > 100 µM | SK-MEL-2 > 100 µM | IGROV-1 > 100 µM | NCI-H226 > 100 µM | SN12C > 100 µM | NCI-H460 > 100 µM | KM12 > 100 µM | NCI-H522 > 100 µM | HOP-62 > 100 µM
